According to patent US12679843B2, “Pyrrolopyrimidine amines as complement inhibitors” (BioCryst Pharmaceuticals, Inc., priority 2020, dated 2026):

molecular target: Factor D (Homo sapiens, UniProt P00746); test: Factor D esterolytic assay (Z-Lys-SBzl thioester substrate, DTNB, 405 nm); assay type: biochemical; details: substrate Z-Lys-SBzl 1.29 mM, 100 mM HEPES, 500 mM NaCl, pH 7.5, 10% DMSO, tested a minimum of three times
Procedure, shortened: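 Human Factor D hydrolysis of Z-Lys-SBzl (1.29 mM) monitored at 405 nm via DTNB thiol detection for 600 s, 690 nm background subtracted. Buffer 100 mM HEPES, 500 mM NaCl, pH 7.5, 10% DMSO; substrate added immediately or after room-temperature preincubation. IC50 from percent inhibition of rate, at least three tests.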

Factor D, sequence (P00746 26-253): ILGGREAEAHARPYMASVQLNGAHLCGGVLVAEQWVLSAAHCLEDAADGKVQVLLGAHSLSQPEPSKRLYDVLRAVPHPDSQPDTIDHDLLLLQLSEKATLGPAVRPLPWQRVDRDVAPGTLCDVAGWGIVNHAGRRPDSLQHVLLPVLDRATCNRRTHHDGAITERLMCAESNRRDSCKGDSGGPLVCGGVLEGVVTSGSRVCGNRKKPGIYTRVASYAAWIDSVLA

`Nc1ncnc2c1c1cccnc1n2CC(=O)N1[C@@H]2C[C@@H]2C[C@H]1C(=O)Nc1cccc(Br)n1` [Compound 162g, (1R,3S,5R)-2-(2-(4-amino-9H-pyrido[3′,2′:4,5]pyrrolo[2,3-d]pyrimidin-9-yl)acetyl)-N-(6-bromopyridin-2-yl)-2-azabicyclo[3.1.0]hexane-3-carboxamide] and `Nc1ncnc2c1c1cnccc1n2CC(=O)N1[C@@H]2C[C@@H]2C[C@H]1C(=O)Nc1cccc(Br)n1` [Compound 163g, (1R,3S,5R)-2-(2-(4-amino-9H-pyrido[3′,4′:4,5]pyrrolo[2,3-d]pyrimidin-9-yl)acetyl)-N-(6-bromopyridin-2-yl)-2-azabicyclo[3.1.0]hexane-3-carboxamide] cannot be ordered by IC50: under 100 nM for the first, under 100 nM for the second.

`Nc1ncnc2c1c1cc(C(F)(F)F)ccc1n2CC(=O)N1[C@@H]2C[C@@H]2C[C@H]1C(=O)Nc1cccc(Br)c1` [Compound 266b, (1R,3S,5R)-2-(2-(4-amino-6-(trifluoromethyl)-9H-pyrimido[4,5-b]indol-9-yl)acetyl)-N-(3-bromophenyl)-2-azabicyclo[3.1.0]hexane-3-carboxamide] and `Nc1ncnc2c1c1cc(C(F)(F)F)ccc1n2CC(=O)N1[C@@H]2C[C@@H]2C[C@H]1C(=O)Nc1cncc(Br)n1` [Compound 260a, (1R,3S,5R)-2-(2-(4-amino-6-(trifluoromethyl)-9H-pyrimido[4,5-b]indol-9-yl)acetyl)-N-(6-bromopyrazin-2-yl)-2-azabicyclo[3.1.0]hexane-3-carboxamide] cannot be ordered by IC50: under 100 nM for the first, under 100 nM for the second.

`Nc1ncnc2c1c1nc(C(F)(F)F)ccc1n2CC(=O)N1[C@@H]2C[C@@H]2C[C@H]1C(=O)Nc1cccc(Br)n1` [Compound 234a, (1R,3S,5R)-2-(2-(4-amino-6-(trifluoromethyl)-9H-pyrido[2′,3′:4,5]pyrrolo[2,3-d]pyrimidin-9-yl)acetyl)-N-(6-bromopyridin-2-yl)-2-azabicyclo[3.1.0]hexane-3-carboxamide] and `Nc1ncnc2c1c1cc(F)ccc1n2CC(=O)N1[C@@H]2C[C@@H]2C[C@H]1C(=O)Nc1cccc(Br)n1` [Compound 32f, (1R,3S,5R)-2-(2-(4-amino-6-fluoro-9H-pyrimido[4,5-b]indol-9-yl)acetyl)-N-(6-bromopyridin-2-yl)-2-azabicyclo[3.1.0]hexane-3-carboxamide] cannot be ordered by IC50: under 100 nM for the first, under 100 nM for the second.

First: Cc1nc(N)c2ccn(CC(=O)N3C[C@H](F)C[C@H]3C(=O)NCc3cccc(Cl)c3F)c2n1 [Compound 132d, (2S,4R)-1-(2-(4-amino-2-methyl-7H-pyrrolo[2,3-d]pyrimidin-7-yl)acetyl)-N-(3-chloro-2-fluorobenzyl)-4-fluoropyrrolidine-2-carboxamide]
Second: NC(=O)c1cnc2c(ccn2CC(=O)N2C[C@H](F)C[C@H]2C(=O)NCc2cccc(Cl)c2F)c1N [Compound 144g, 4-amino-1-(2-((2S,4R)-2-((3-chloro-2-fluorobenzyl)carbamoyl)-4-fluoropyrrolidin-1-yl)-2-oxoethyl)-1H-pyrrolo[2,3-b]pyridine-5-carboxamide]
The IC50 of the first is higher: over 1000 nM for the first, 100 to 1000 nM for the second. The second is the more potent here.

`Cc1cc(-c2cccnc2)cc2c3c(N)ncnc3n(CC(=O)N3[C@H](C(=O)Nc4cccc(Br)n4)C[C@@]4(C)C[C@@H]34)c12` [Compound 289a, (1R,3S,5R)-2-(2-(4-amino-8-methyl-6-(pyridin-3-yl)-9H-pyrimido[4,5-b]indol-9-yl)acetyl)-N-(6-bromopyridin-2-yl)-5-methyl-2-azabicyclo[3.1.0]hexane-3-carboxamide] and `C[C@@]12C[C@@H](C(=O)Nc3cccc(Br)n3)N(C(=O)Cn3c4ncccc4c4c(N)ncnc43)[C@@H]1C2` [Compound 183a, (1R,3S,5R)-2-(2-(4-amino-9H-pyrido[3′,2′:4,5]pyrrolo[2,3-d]pyrimidin-9-yl)acetyl)-N-(6-bromopyridin-2-yl)-5-methyl-2-azabicyclo[3.1.0]hexane-3-carboxamide] cannot be ordered by IC50: under 100 nM for the first, under 100 nM for the second.

Going from `O=C(O)c1cnc2c(ccn2CC(=O)N2[C@@H]3C[C@@H]3C[C@H]2C(=O)Nc2cccc(Br)n2)c1` [Compound 128a, 1-(2-((1R,3S,5R)-3-((6-bromopyridin-2-yl)carbamoyl)-2-azabicyclo[3.1.0]hexan-2-yl)-2-oxoethyl)-1H-pyrrolo[2,3-b]pyridine-5-carboxylic acid] to `Nc1ncnc2c1c1cc(Br)ccc1n2CC(=O)N1[C@@H]2C[C@@H]2C[C@H]1C(=O)Nc1cccc(Br)n1` [Compound 34e, (1R,3S,5R)-2-(2-(4-amino-6-bromo-9H-pyrimido[4,5-b]indol-9-yl)acetyl)-N-(6-bromopyridin-2-yl)-2-azabicyclo[3.1.0]hexane-3-carboxamide], the IC50 falls from over 1000 nM to under 100 nM.

Compared with `Cc1ccc(Br)nc1NC(=O)[C@@H]1C[C@@]2(C)C[C@H]2N1C(=O)Cn1cnc2c(N)ncnc21` [Compound 113a, (1R,3S,5R)-2-(2-(6-amino-9H-purin-9-yl)acetyl)-N-(6-bromo-3-methylpyridin-2-yl)-5-methyl-2-azabicyclo[3.1.0]hexane-3-carboxamide], `C[C@@]12C[C@@H](C(=O)Nc3cccc(Br)n3)N(C(=O)Cn3c4ncnc(N)c4c4cccc(F)c43)[C@@H]1C2` [Compound 198a, (1R,3S,5R)-2-(2-(4-amino-8-fluoro-9H-pyrimido[4,5-b]indol-9-yl)acetyl)-N-(6-bromopyridin-2-yl)-5-methyl-2-azabicyclo[3.1.0]hexane-3-carboxamide] is lower in IC50: 100 to 1000 nM for the first, under 100 nM for the second.

`Cc1ccnc2c3c(N)ncnc3n(CC(=O)N3[C@@H]4C[C@@H]4C[C@H]3C(=O)Nc3cccc(Br)n3)c12` [Compound 284a, (1R,3S,5R)-2-(2-(4-amino-8-methyl-9H-pyrido[2′,3′:4,5]pyrrolo[2,3-d]pyrimidin-9-yl)acetyl)-N-(6-bromopyridin-2-yl)-2-azabicyclo[3.1.0]hexane-3-carboxamide] and `Cc1cc(C)c2c(c1)c1c(N)ncnc1n2CC(=O)N1[C@@H]2C[C@@H]2C[C@H]1C(=O)Nc1cccc(Br)n1` [Compound 189g, (1R,3S,5R)-2-(2-(4-amino-6,8-dimethyl-9H-pyrimido[4,5-b]indol-9-yl)acetyl)-N-(6-bromopyridin-2-yl)-2-azabicyclo[3.1.0]hexane-3-carboxamide] cannot be ordered by IC50: under 100 nM for the first, under 100 nM for the second.

Compared with `Nc1ncnc2c1c(-c1ccc[nH]1)cn2CC(=O)N1C[C@H](F)C[C@H]1C(=O)NCc1cccc(Cl)c1F` [Compound 149b, (2S,4R)-1-(2-(4-amino-5-(1H-pyrrol-2-yl)-7H-pyrrolo[2,3-d]pyrimidin-7-yl)acetyl)-N-(3-chloro-2-fluorobenzyl)-4-fluoropyrrolidine-2-carboxamide], `NCCNc1ncnc2c1ncn2CC(=O)N1C[C@H](F)C[C@H]1C(=O)NCc1cccc(Cl)c1F` [Compound 123g, (2S,4R)-1-(2-(6-((2-aminoethyl)amino)-9H-purin-9-yl)acetyl)-N-(3-chloro-2-fluorobenzyl)-4-fluoropyrrolidine-2-carboxamide] is higher in IC50: 100 to 1000 nM for the first, over 1000 nM for the second. The first is the more potent here.

`Nc1ncnc2c1c1cc(C(F)(F)F)cc(F)c1n2CC(=O)N1[C@@H]2C[C@@H]2C[C@H]1C(=O)Nc1cccc(Br)n1` [Compound 369g, (1R,3S,5R)-2-(2-(4-amino-8-fluoro-6-(trifluoromethyl)-9H-pyrimido[4,5-b]indol-9-yl)acetyl)-N-(6-bromopyridin-2-yl)-2-azabicyclo[3.1.0]hexane-3-carboxamide] and `Nc1ncnc2c1c1cc(F)c(F)cc1n2CC(=O)N1[C@@H]2C[C@@H]2C[C@H]1C(=O)Nc1cccc(Br)n1` [Compound 386g, (1R,3S,5R)-2-(2-(4-amino-6,7-difluoro-9H-pyrimido[4,5-b]indol-9-yl)acetyl)-N-(6-bromopyridin-2-yl)-2-azabicyclo[3.1.0]hexane-3-carboxamide] cannot be ordered by IC50: under 100 nM for the first, under 100 nM for the second.

First: Cc1ccc2c3c(N)ncnc3n(CC(=O)N3[C@@H]4C[C@@H]4C[C@H]3C(=O)Nc3cccc(Br)n3)c2c1 [Compound 23f, (1R,3S,5R)-2-(2-(4-amino-7-methyl-9H-pyrimido[4,5-b]indol-9-yl)acetyl)-N-(6-bromopyridin-2-yl)-2-azabicyclo[3.1.0]hexane-3-carboxamide]
Second: Cc1cccc2c1c1c(N)ncnc1n2CC(=O)N1[C@@H]2C[C@@H]2C[C@H]1C(=O)Nc1cccc(Br)n1 [Compound 56g, (1R,3S,5R)-2-(2-(4-amino-5-methyl-9H-pyrimido[4,5-b]indol-9-yl)acetyl)-N-(6-bromopyridin-2-yl)-2-azabicyclo[3.1.0]hexane-3-carboxamide]
The IC50 of the first is lower: under 100 nM for the first, 100 to 1000 nM for the second.

`Cc1ncc(-c2cc(C)c3c(c2)c2c(N)ncnc2n3CC(=O)N2[C@@H]3C[C@@H]3C[C@H]2C(=O)Nc2cccc(Br)n2)cn1` [Compound 308c, (1R,3S,5R)-2-(2-(4-amino-8-methyl-6-(2-methylpyrimidin-5-yl)-9H-pyrimido[4,5-b]indol-9-yl)acetyl)-N-(6-bromopyridin-2-yl)-2-azabicyclo[3.1.0]hexane-3-carboxamide] and `COc1cc(Br)nc(NC(=O)[C@@H]2C[C@H]3C[C@H]3N2C(=O)Cn2c3ncnc(N)c3c3cc(C(F)(F)F)cc(C)c32)c1` [Compound 344c, (1R,3S,5R)-2-(2-(4-amino-8-methyl-6-(trifluoromethyl)-9H-pyrimido[4,5-b]indol-9-yl)acetyl)-N-(6-bromo-4-methoxypyridin-2-yl)-2-azabicyclo[3.1.0]hexane-3-carboxamide] cannot be ordered by IC50: under 100 nM for the first, under 100 nM for the second.

`Cc1cc(C(F)(F)F)cc2c3c(N)ncnc3n(CC(=O)N3[C@@H]4C[C@@H]4C[C@H]3C(=O)Nc3cccc(OC(F)F)n3)c12` [Compound 345c, (1R,3S,5R)-2-(2-(4-amino-8-methyl-6-(trifluoromethyl)-9H-pyrimido[4,5-b]indol-9-yl)acetyl)-N-(6-(difluoromethoxy)pyridin-2-yl)-2-azabicyclo[3.1.0]hexane-3-carboxamide] and `COC(=O)c1cc(OC)c2c(c1)c1c(N)ncnc1n2CC(=O)N1[C@H](C(=O)Nc2cccc(Br)n2)C[C@@]2(C)C[C@@H]12` [Compound 241a, methyl 4-amino-9-(2-((1R,3S,5R)-3-((6-bromopyridin-2-yl)carbamoyl)-5-methyl-2-azabicyclo[3.1.0]hexan-2-yl)-2-oxoethyl)-8-methoxy-9H-pyrimido[4,5-b]indole-6-carboxylate] cannot be ordered by IC50: under 100 nM for the first, under 100 nM for the second.
